Literature values, collected in US6495173B1, “Compositions and methods for reducing or controlling blood cholesterol, lipoproteins, triglycerides and atherosclerosis” (priority 2000, dated 2002).

Key:
[1] = mean dose of 2,250 mg/day
[2] = large doses (3 to 6 g/day)
[3] = 75 mg to 600 mg/day, eight years
[4] = 100 mg per day for 30 days
[5] = in vivo
[6] = human, in vivo
[7] = 500 mcg BID, after 2 and 4 months
[8] = supplement users versus non-users
[9] = rats

O=C(O)c1cccnc1 [Nicotinic acid]
increase in levels of HDL-cholesterol [1]: 35% | increase in HDL [2]: ≤ 30 mg/dL

COC1=C(OC)C(=O)C(C/C=C(\C)CC/C=C(\C)CC/C=C(\C)CC/C=C(\C)CC/C=C(\C)CC/C=C(\C)CC/C=C(\C)CC/C=C(\C)CC/C=C(\C)CCC=C(C)C)=C(C)C1=O [Coenzyme Q10]
decreased dependency on drugs [3]: 43% | improvements in myocardial function [3]: 58% | hydroperoxide levels in the LDL3 subfraction [4]: significant decrease | Coenzyme Q10 levels in all three LDL subfractions ([4]; P<0.01): increased

CC[C@H](C)C(=O)O[C@H]1C[C@@H](C)C=C2C=C[C@H](C)[C@H](CC[C@@H]3C[C@@H](O)CC(=O)O3)[C@H]21 [Lovastatin, lovastatin]
increased liver transaminase levels, share of subjects [5]: 2% | myopathy with a creatine kinase greater than 10 times normal, share of subjects [5]: 0.5% | required discontinuation, share of those treated [5]: 9% | decrease in levels of LDL [6]: 32.4% | decrease in levels of VLDL [6]: 53%

[Cr] [chromium]
blood sugar and cholesterol versus placebo group [7]: lower

chromium picolinate
triglyceride level (supplementation for 2 months (vs. 161)): 133 mg/dL | reduction in triglyceride levels (supplementation for 2 months, P<0.05): 17.4%

vitamin E
absolute risk reduction [8]: 3.4 women per 10,000 woman-years | reduction in relative risk for non-fatal myocardial infarction and death from cardiovascular disease ([8]; average 8 years follow-up, adjusted): 31%

CC(C)(C)c1cc(O)ccc1O [TBHQ, tert-butylhydroquinone]
blood cholesterol and triglycerides [9]: reduce
